{
  "source": "paper PMC7600127",
  "about": "“Peptide-Based TNF-α-Binding Decoy Therapy Mitigates Lipopolysaccharide-Induced Liver Injury in Mice” (Pharmaceuticals, 2020)",
  "tested_on": "LPS-induced liver injury",
  "assay": "Exogenous TNF-α counteraction of SEM18 in LPS-treated mice",
  "type": "in vivo, Balb/cJ mice",
  "details": "LSEM + TNF-α group vs LSEM group; TNF-α 0.3 mg/kg then 3 x 0.15 mg/kg i.p. with SEM18; 24 h after LPS 15 mg/kg; n = 5",
  "method": "Exogenous TNF-α (recombinant mouse TNF-α; R&D Systems, Minneapolis, MN, USA) was used to confirm whether the therapeutic effects of SEM18 peptide were mediated by decreasing TNF-α binding to TNFR1. A set of mice (n = 5, designated as the LSEM + TNF-α group) were treated with LPS as described earlier. Two hours after LPS, exogenous TNF-α (0.3 mg/kg i.p.) was administered, followed by SEM18 (0.3 mg/kg, i.p.). Supplemental doses of exogenous TNF-α administration (0.15 mg/kg, i.p.) and SEM18 (0.15 mg/kg, i.p.) were administered every 2 h three times. These mice were closely monitored for 24 h (starting from LPS administration). All mice survived the experiment. […]\nFigure 7 Exogenous tumor necrosis factor (TNF)-α counteracts the effects of SEM18 peptide. (A) Binding of TNF-α to TNF receptor 1, as measured at 24 h after lipopolysaccharide (LPS) administration using immunofluorescence staining of proximity ligation assay (PLA). (B) Plasma concentrations of aspartate aminotransferase (AST) and alanine aminotransferase (ALT) and the wet/dry (W/D) weight ratio of the liver tissues, as measured at 24 h after LPS administration. […] For apoptosis analysis, liver tissues were assayed using the terminal deoxynucleotidyl transferase dUTP nick-end labeling (TUNEL) method and the mean TUNEL-positive cell in liver tissues (per 0.25 mm^2) was calculated, as measured at 24 h after LPS administration. […]",
  "data": [
    {"substance": "recombinant mouse TNF-α [exogenous TNF-α]", "values": [
      {"measurement": "effect of exogenous TNF-α on the therapeutic effects of SEM18 peptide", "result": "counteracting the therapeutic effects of SEM18 peptide"}
    ]}
  ]
}
